Activity coefficient data for 19 compounds are collected here from the NIST ThermoML archive (doi:10.1016/j.jct.2005.04.010).

± gives the expanded uncertainty stated by the source.

This series in a line: activity coefficient (dimensionless); of the first substance listed, at infinite dilution; xn = mol fraction of the nth substance listed. As to conditions: Liquid, x1 = 0.

For `C1CCCCC1` [cyclohexane] + CCCCCC[n+]1ccn(C)c1.O=S(=O)([N-]S(=O)(=O)C(F)(F)F)C(F)(F)F, the activity coefficient is, setting by setting: (303.15 K, Chromatography) 5.48 ± 0.25; (303.15 K, dilutor) 5.29 ± 0.26; (313.15 K, Chromatography) 5.15 ± 0.24; (313.15 K, dilutor) 5.01 ± 0.25; (323.15 K, Chromatography) 4.9 ± 0.22; (323.15 K, dilutor) 4.78 ± 0.24. In addition, the activity coefficient by setting is: (333.15 K, Chromatography) 4.75 ± 0.22; (333.15 K, dilutor) 4.68 ± 0.23.

For `C1CCCCC1` [cyclohexane] + CCCC[N+]1(C)CCCC1.O=S(=O)([N-]S(=O)(=O)C(F)(F)F)C(F)(F)F, the activity coefficient was 8.75 ± 0.44 (303.15 K, dilutor); 8.43 ± 0.42 (313.15 K, dilutor); 7.91 ± 0.4 (323.15 K, dilutor); 7.42 ± 0.37 (333.15 K, dilutor).

As to `C1=CCCCC1` [cyclohexene] + CCCCCCCCn1cc[n+](C)c1.O=S(=O)([N-]S(=O)(=O)C(F)(F)F)C(F)(F)F, the activity coefficient (303.15 K, Chromatography) came to 2.41 ± 0.11; the activity coefficient (303.15 K, dilutor) was 2.44 ± 0.12; the activity coefficient (313.15 K, Chromatography) was determined as 2.38 ± 0.11; the activity coefficient (313.15 K, dilutor) was 2.38 ± 0.12; the activity coefficient (323.15 K, Chromatography) worked out at 2.31 ± 0.1; the activity coefficient (323.15 K, dilutor) was 2.33 ± 0.12. For the same compound, the activity coefficient reads like this: (333.15 K, Chromatography) 2.29 ± 0.1; (333.15 K, dilutor) 2.28 ± 0.11.

Turning to `C1=CCCCC1` [cyclohexene] + CCCCCC[n+]1ccn(C)c1.O=S(=O)([N-]S(=O)(=O)C(F)(F)F)C(F)(F)F, the activity coefficient reads like this: (303.15 K, Chromatography) 3.42 ± 0.16; (303.15 K, dilutor) 3.2 ± 0.16; (313.15 K, Chromatography) 3.28 ± 0.15; (313.15 K, dilutor) 3.15 ± 0.16; (323.15 K, Chromatography) 3.18 ± 0.14; (323.15 K, dilutor) 3.07 ± 0.15. Besides, the activity coefficient (333.15 K, Chromatography) was 3.14 ± 0.14 and the activity coefficient (333.15 K, dilutor) was 3.01 ± 0.15.

As for `C1CCCC1` [cyclopentane] + CCCCCCCCn1cc[n+](C)c1.O=S(=O)([N-]S(=O)(=O)C(F)(F)F)C(F)(F)F, the activity coefficient runs as follows: (303.15 K, dilutor) 2.68 ± 0.13; (313.15 K, dilutor) 2.64 ± 0.13; (323.15 K, dilutor) 2.59 ± 0.13; (333.15 K, dilutor) 2.56 ± 0.13.

Regarding `C1CCCC1` [cyclopentane] + CCCCCC[n+]1ccn(C)c1.O=S(=O)([N-]S(=O)(=O)C(F)(F)F)C(F)(F)F, the activity coefficient came to 3.64 ± 0.18 (303.15 K, dilutor); 3.48 ± 0.17 (313.15 K, dilutor); 3.27 ± 0.16 (323.15 K, dilutor); 3.26 ± 0.16 (333.15 K, dilutor).

`C1CCCC1` [cyclopentane] + CCCC[N+]1(C)CCCC1.O=S(=O)([N-]S(=O)(=O)C(F)(F)F)C(F)(F)F: the activity coefficient reads like this: (303.15 K, dilutor) 6.14 ± 0.31; (313.15 K, dilutor) 5.7 ± 0.29; (323.15 K, dilutor) 5.41 ± 0.27; (333.15 K, dilutor) 5.12 ± 0.26.

Turning to `C1=CCCC1` [cyclopentene] + CCCCCCCCn1cc[n+](C)c1.O=S(=O)([N-]S(=O)(=O)C(F)(F)F)C(F)(F)F, the activity coefficient was 1.86 ± 0.09 (303.15 K, dilutor); 1.84 ± 0.09 (313.15 K, dilutor); 1.81 ± 0.09 (323.15 K, dilutor); 1.78 ± 0.09 (333.15 K, dilutor).

As to `CC(C)OC(C)C` [diisopropyl ether] + CCCCCC[n+]1ccn(C)c1.O=S(=O)([N-]S(=O)(=O)C(F)(F)F)C(F)(F)F, the activity coefficient worked out at 2.76 ± 0.13 (303.15 K, Chromatography); 2.82 ± 0.13 (313.15 K, Chromatography); 2.85 ± 0.13 (323.15 K, Chromatography); 2.92 ± 0.13 (333.15 K, Chromatography).

Regarding `CCO` [ethanol] + CCCCCCCCn1cc[n+](C)c1.O=S(=O)([N-]S(=O)(=O)C(F)(F)F)C(F)(F)F, the activity coefficient (303.15 K, Chromatography) was determined as 1.46 ± 0.06; the activity coefficient (313.15 K, Chromatography) came out at 1.34 ± 0.05; the activity coefficient (323.15 K, Chromatography) amounted to 1.22 ± 0.04; the activity coefficient (333.15 K, Chromatography) was found to be 1.12 ± 0.03.

`CCO` [ethanol] + CCCCCC[n+]1ccn(C)c1.O=S(=O)([N-]S(=O)(=O)C(F)(F)F)C(F)(F)F: the activity coefficient was 1.6 ± 0.06 (303.15 K, Chromatography); 1.47 ± 0.06 (313.15 K, Chromatography); 1.36 ± 0.05 (323.15 K, Chromatography); 1.27 ± 0.04 (333.15 K, Chromatography).

Regarding `CCO` [ethanol] + CCCC[N+]1(C)CCCC1.O=S(=O)([N-]S(=O)(=O)C(F)(F)F)C(F)(F)F, the activity coefficient by setting is: (303.15 K, dilutor) 1.84 ± 0.09; (313.15 K, dilutor) 1.73 ± 0.09; (323.15 K, dilutor) 1.63 ± 0.08; (333.15 K, dilutor) 1.5 ± 0.08.

For the compound `CCCCCCC` [heptane] + CCCCCCCCn1cc[n+](C)c1.O=S(=O)([N-]S(=O)(=O)C(F)(F)F)C(F)(F)F, the activity coefficient (303.15 K, Chromatography) was determined as 6.82 ± 0.31; the activity coefficient (303.15 K, dilutor) was 7.01 ± 0.35; the activity coefficient (313.15 K, Chromatography) came to 6.55 ± 0.3; the activity coefficient (313.15 K, dilutor) was determined as 6.81 ± 0.34; the activity coefficient (323.15 K, Chromatography) was determined as 6.38 ± 0.29; the activity coefficient (323.15 K, dilutor) was determined as 6.57 ± 0.33. Besides, the activity coefficient reads like this: (333.15 K, Chromatography) 6.21 ± 0.28; (333.15 K, dilutor) 6.4 ± 0.32.

Turning to `CCCCCCC` [heptane] + CCCCCC[n+]1ccn(C)c1.O=S(=O)([N-]S(=O)(=O)C(F)(F)F)C(F)(F)F, the activity coefficient runs as follows: (303.15 K, Chromatography) 11.2 ± 0.5; (303.15 K, dilutor) 11 ± 0.6; (313.15 K, Chromatography) 10.6 ± 0.5; (313.15 K, dilutor) 10.6 ± 0.5; (323.15 K, Chromatography) 10 ± 0.5; (323.15 K, dilutor) 10.1 ± 0.5. Moreover, the activity coefficient reads like this: (333.15 K, Chromatography) 9.67 ± 0.44; (333.15 K, dilutor) 9.77 ± 0.49.

Turning to `CCCCCCC` [heptane] + CCCC[N+]1(C)CCCC1.O=S(=O)([N-]S(=O)(=O)C(F)(F)F)C(F)(F)F, the activity coefficient (303.15 K, dilutor) was 20.7 ± 1; the activity coefficient (313.15 K, dilutor) is 19.3 ± 1; the activity coefficient (323.15 K, dilutor) was 18.2 ± 0.9; the activity coefficient (333.15 K, dilutor) is 17.2 ± 0.9.

Take `C=CCCCC` [hex-1-ene] + CCCCCCCCn1cc[n+](C)c1.O=S(=O)([N-]S(=O)(=O)C(F)(F)F)C(F)(F)F: the activity coefficient (303.15 K, Chromatography) turned out to be 3.29 ± 0.15; the activity coefficient (303.15 K, dilutor) was 3.33 ± 0.17; the activity coefficient (313.15 K, Chromatography) came out at 3.27 ± 0.15; the activity coefficient (313.15 K, dilutor) turned out to be 3.3 ± 0.17; the activity coefficient (323.15 K, Chromatography) stood at 3.18 ± 0.14; the activity coefficient (323.15 K, dilutor) came out at 3.27 ± 0.16. Moreover, the activity coefficient by setting is: (333.15 K, Chromatography) 3.18 ± 0.14; (333.15 K, dilutor) 3.23 ± 0.16.

On to `C=CCCCC` [hex-1-ene] + CCCCCC[n+]1ccn(C)c1.O=S(=O)([N-]S(=O)(=O)C(F)(F)F)C(F)(F)F, for which the activity coefficient is, setting by setting: (303.15 K, Chromatography) 4.71 ± 0.21; (303.15 K, dilutor) 4.64 ± 0.23; (313.15 K, Chromatography) 4.61 ± 0.21; (313.15 K, dilutor) 4.56 ± 0.23; (323.15 K, Chromatography) 4.48 ± 0.2; (323.15 K, dilutor) 4.48 ± 0.22. Further, the activity coefficient by setting is: (333.15 K, Chromatography) 4.44 ± 0.2; (333.15 K, dilutor) 4.39 ± 0.22.

For `C=CCCCC` [hex-1-ene] + CCCC[N+]1(C)CCCC1.O=S(=O)([N-]S(=O)(=O)C(F)(F)F)C(F)(F)F, the activity coefficient is 7.08 ± 0.35 (303.15 K, dilutor); 6.92 ± 0.35 (313.15 K, dilutor); 6.82 ± 0.34 (323.15 K, dilutor); 6.64 ± 0.33 (333.15 K, dilutor).

Consider `CCCCCC` [hexane] + CCCCCCCCn1cc[n+](C)c1.O=S(=O)([N-]S(=O)(=O)C(F)(F)F)C(F)(F)F, for which the activity coefficient came out at 5.32 ± 0.24 (303.15 K, Chromatography); 5.44 ± 0.27 (303.15 K, dilutor); 5.13 ± 0.23 (313.15 K, Chromatography); 5.26 ± 0.26 (313.15 K, dilutor); 4.92 ± 0.22 (323.15 K, Chromatography); 5.13 ± 0.26 (323.15 K, dilutor). Further, the activity coefficient amounted to 4.8 ± 0.22 (333.15 K, Chromatography) and 4.97 ± 0.25 (333.15 K, dilutor).
